Data on three compounds can be found in patent US20260250312A1, “ANTIBACTERIAL COMPOUNDS ELIMINATING DORMANT BACTERIAL CELLS” (UNIVERSITÉ D'AIX-MARSEILLE, priority 2022, published 2026).

Values after ≈ are worked out from the molar mass of the structure shown. Values joined by “and” are separate entries in the source; they are usually repeats but may differ in a detail not shown here. Equal entries are not always repeated. Where two headings read alike, the source gives them in different places. Marks after values point to notes of the source that are not given here.

As usually defined, the IC50 is the point on the concentration scale where inhibition reaches its midpoint.

Series [1] deals with Escherichia coli (E. coli) persister cells. The series is described as follows: Anti-persister activity test, persister cells. In kind it is cell-based. The settings on record: for anti-persister activity (in words): E. coli persister cells, Table 8 conditions.
Series [2] concerns Escherichia coli (ATCC28922). The series is described as follows: Microdilution MIC assay (CLSI-based), E. coli. The class given is cell-based. The settings on record: 20 hours incubation at 35-37° C., MHB; for MIC: Escherichia coli, ATCC28922, 20 h, read-out: Minimum inhibitory concentration E. coli ATCC28922. The essentials: (§1)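 Broth microdilution per modified CLSI guidelines in Mueller Hinton broth, 200 μL, inoculum ca. 5×10^5 CFU/mL; compounds tested as salts, twofold dilutions from 0.2 mg/mL, in triplicate. MIC determined from OD at 620 nm after incubation.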

For series [3], the system named is Staphylococcus aureus (ATCC25923). The series is described as follows: Microdilution MIC assay (CLSI-based), S. aureus. In kind it is cell-based. The settings on record: 20 hours incubation at 35-37° C., MHB; for MIC: Staphylococcus aureus, ATCC25923, 20 h, read-out: Minimum inhibitory concentration S. aureus ATCC25923. The essentials: as §1
(In general: Dilution methods test growth across graded concentrations, often in twofold steps.)

The test system of series [4] is Enterococcus faecalis (ATCC29212). The series can be described thus: Microdilution MIC assay (CLSI-based), E. faecalis. Conditions: 20 hours incubation at 35-37° C., MHB; for MIC: Enterococcus faecalis, ATCC29212, 20 h, read-out: Minimum inhibitory concentration E. faecalis ATCC29212. The class given is cell-based. The essentials: as §1
Series [5] deals with Pseudomonas aeruginosa (ATCC27853). The series can be described thus: Microdilution MIC assay (CLSI-based), P. aeruginosa. The class given is cell-based. The settings on record: 20 hours incubation at 35-37° C., MHB; for MIC: Pseudomonas aeruginosa, ATCC27853, 20 h, read-out: Minimum inhibitory concentration P. aeruginosa ATCC27853. The essentials: as §1
A further series deals with CHO-K1 cells. The series is described as follows: WST1 cytotoxicity test. The class given is cell-based, Chinese hamster. The essentials: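 CHO-K1 cells pre-cultured 24 h, then exposed 24 h at 37 °C to increasing compound concentrations. Viability read as WST-1 formazan absorbance at 450 nm after 20 min; dose-response fitted by nonlinear regression.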
For orientation: Tetrazolium dyes change colour on reduction, which living cells bring about.

For series [6], the system named is E. coli non-persister cells. The series can be described thus: Anti-persister activity test, non-persister cells. The class given is cell-based, Escherichia coli. The settings on record: for activity on non-persister cells (in words): E. coli non-persister cells, Table 8 conditions.
The mark [7] stands for this setting: Cricetulus griseus, CHO-K1, 24 h, WST1, 24 hours at 37° C., read-out: IC50 CHO.
[8] abbreviates: Cricetulus griseus, CHO-K1, WST1, as printed in Table 8, read-out: Toxicity IC50 CHO.
Setting [9] is: concentration used 250 μM, 4 hours treatment.

For the compound `CC[C@H](C)[C@H](NC(=O)CC[C@@H](C)[C@H]1CC[C@H]2[C@@H]3[C@H](O)C[C@@H]4C[C@@H](NCCCNCCNCCCN)CC[C@]4(C)[C@H]3CC[C@]12C)C(=O)OC` [Compound S041, methyl (2S,3S)-2-((4R)-4-((3S,5S,7R,10S,13R,17R)-3-((3-((2-((3-aminopropyl)amino)ethyl)amino)propyl)amino)-7-hydroxy-10,13-dimethylhexadecahydro-1H-cyclopenta[a]phenanthren-17-yl)pentanamido)-3-methylpentanoate], the “anti-persister activity (in words)” value in series [1] is listed as “not as good on persister cells”. Moreover, the viability at 125 µM in series [1] (Escherichia coli, 4 h, read-out: Persister cell survival rate 96 h, concentration used 125 μM, 4 hours treatment) came to 0.1%; in series [6] (Escherichia coli, 4 h, read-out: Non-persister cell survival rate 96 h, concentration used 125 μM, 4 hours treatment), 0%. The MIC in series [2] is 12.5 µM and 8 µg/mL; in series [3], 12.5 µM and 8 µg/mL; in series [4], 12.5 µM and 8 µg/mL; in series [5], 12.5 µM and 8 µg/mL. The IC50 was 9.8 µM and 6.63 µg/mL in the series on CHO-K1 cells (setting [7]); 9.8 µM with CHO-K1 cells (setting [8]). In addition, in series [6], the “activity on non-persister cells (in words)” value is “good activity on non-persister cells”.

For `COC(=O)[C@H](NC(=O)CC[C@@H](C)[C@H]1CCC2C3C(CC[C@@]21C)[C@@]1(C)CC[C@H](NCCCNCCCN)C[C@H]1C[C@H]3O)C(C)C` (stereo partly drawn) [Compound S017, methyl ((4R)-4-((3S,5S,7R,10S,13R,17R)-3-((3-((3-aminopropyl)amino)propyl)amino)-7-hydroxy-10,13-dimethylhexadecahydro-1H-cyclopenta[a]phenanthren-17-yl)pentanoyl)-D-valinate], the “anti-persister activity (in words)” value in series [1] is reported as “not as good on persister cells”. Also, the “Persister cell survival rate 96 h” value in series [1] (setting [9]) was found to be 0.6%. Also, the “Minimum inhibitory concentration E. coli ATCC28922” value in series [2] was 12.5* μM and 8* μg/mL. The “Minimum inhibitory concentration S. aureus ATCC25923” value in series [3] is 12.5* μM and 8* μg/mL. For the same compound, the “Minimum inhibitory concentration E. faecalis ATCC29212” value in series [4] was 25* μM and 16* μg/mL. The “Minimum inhibitory concentration P. aeruginosa ATCC27853” value in series [5] is 50* μM and 32* μg/mL. Further, in the series with CHO-K1 cells (WST1, 24 hours at 37° C.), the “IC50 CHO” value amounted to 33.23 µg/mL (≈ 53.7 µM). The IC50 in the series on CHO-K1 cells (WST1, 24 hours at 37° C., read-out: IC50 CHO) was determined as 53.7 µM; with CHO-K1 cells (WST1, Table 8, read-out: Toxicity IC50 CHO), 53.7 µM. Also, the “activity on non-persister cells (in words)” value in series [6] was “good activity on non-persister cells”. In addition, in series [6] (setting [9]), the “Non-persister cell survival rate 96 h” value amounted to 0.0%.

As for `COC(=O)[C@H](NC(=O)CC[C@@H](C)[C@H]1CCC2C3C(C[C@H](O)[C@@]21C)[C@@]1(C)CC[C@H](NCCCN(CCCN)CCCN)C[C@H]1C[C@H]3O)C(C)C` (stereo partly drawn) [Compound S060, methyl ((4R)-4-((3S,5S,7R,10S,12S,13R,17R)-3-((3-(bis(3-aminopropyl)amino)propyl)amino)-7,12-dihydroxy-10,13-dimethylhexadecahydro-1H-cyclopenta[a]phenanthren-17-yl)pentanoyl)-D-valinate], the “anti-persister activity (in words)” value in series [1] is recorded as “very potent anti-persister activity”. For the same compound, the viability at 250 µM in series [1] (Escherichia coli, 4 h, read-out: Persister cell survival rate 96 h, concentration used 250 μM, 4 hours treatment) was 2%; in series [6] (Escherichia coli, 4 h, read-out: Non-persister cell survival rate 96 h, concentration used 250 μM, 4 hours treatment), 3.8%. Further, the MIC was 160 µM and 128 µg/mL in series [2]; 40 µM and 32 µg/mL in series [3]; 160 µM and 128 µg/mL in series [4]; 160 µM and 128 µg/mL in series [5]. The “toxicity results (in words)” value in the series with CHO-K1 cells is “good toxicity results”. Besides, the 50% inhibitory concentration (IC50) was 186 µM and 129 µg/mL with CHO-K1 cells (setting [7]); 186 µM in the series on CHO-K1 cells (setting [8]).
